{
  "source": "paper PMC4818757",
  "about": "“Small molecule inhibitors of the Dishevelled‐CXXC5 interaction are new drug candidates for bone anabolic osteoporosis therapy” (EMBO Molecular Medicine, 2016)",
  "key": {"TA-98": {"tested_on": "TA-98", "conditions": "TA-98, Without S-9 mix", "source_text": "(§1) Appendix Table S3. Bacterial reverse mutation assay with KY-02327\n(§2) a Number of revertant colonies of treated plate/Number of revertant colonies of\n(§3) vehicle control plate (Maron & Ames, 1983).\n(§4) b Negative control. Vehicle: DMSO"}, "TA-100": {"tested_on": "TA-100", "conditions": "TA-100, Without S-9 mix", "source_text": "as §1, §2, §3, §4"}, "[1]": {"molecular_target": "CYP C29 (so in the source); probably CYP2C9) (Homo sapiens, UniProt P11712)", "sequence (P11712 whole entry)": "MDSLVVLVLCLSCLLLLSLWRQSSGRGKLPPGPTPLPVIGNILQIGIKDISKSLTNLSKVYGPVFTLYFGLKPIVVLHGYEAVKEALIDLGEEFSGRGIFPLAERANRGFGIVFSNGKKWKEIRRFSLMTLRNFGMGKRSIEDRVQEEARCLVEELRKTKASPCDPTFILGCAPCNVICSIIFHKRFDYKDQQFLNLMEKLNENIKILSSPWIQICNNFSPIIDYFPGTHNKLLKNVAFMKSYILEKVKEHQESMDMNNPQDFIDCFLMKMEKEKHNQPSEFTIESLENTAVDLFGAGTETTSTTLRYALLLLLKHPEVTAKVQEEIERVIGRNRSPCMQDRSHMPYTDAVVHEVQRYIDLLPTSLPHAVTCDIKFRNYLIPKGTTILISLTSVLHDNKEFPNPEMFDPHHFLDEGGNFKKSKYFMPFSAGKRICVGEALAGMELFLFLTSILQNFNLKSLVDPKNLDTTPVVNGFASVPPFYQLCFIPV", "experiment": "Cytochrome P450 inhibition assay, C29", "source_text": "Appendix Table S4. Cytochrome P450 (CYP) inhibition assay with 10 µ M KY-"}, "[2]": {"tested_on": "ovariectomized (OVX) mice", "experiment": "OVX-induced osteoporosis mouse model", "format": "in vivo", "conditions": "KY‐02327 20 mpk oral, PTH 0.06 mpk subcutaneous", "experimental": "Figure 6 Effects of KY‐02327 on OVX‐induced osteoporosis model mice • A–H Vehicle or 20 mg of KY‐02327 per kg of animal body weight (mpk) was orally administered or 0.06 mpk of the N‐terminal fragment of PTH (amino acids 1‐34) was subcutaneously injected into the Sham‐operated (Sham) or ovariectomized (OVX) mice on 5 sequential days per week for 4 weeks (n = 4). After calcein injection, the prepared femoral sections of the OVX mice were examined under fluorescence microscope to visualize integrated calcein (A, green, arrows). Nuclei were counterstained with DAPI (A, blue). Scale bars, 100 μm. Osteoblast numbers (B) and calcein double‐labeled surfaces (C) were measured in the femoral sections. The mouse femurs were analyzed using micro‐CT, and BMD (D) and BV/TV (E) were calculated from the micro‐CT data. The three‐dimensional images of femoral trabecular bone were reconstructed (F), and trabecular number (G) and trabecular separation (H) were calculated. Data Information: The data are the mean ± s.d. (error bars). Significance was assessed using Kruskal–Wallis test.\nThis animal study was approved by the Institutional Review Board of Severance Hospital, Yonsei University College of Medicine. The mice were housed in filter‐topped shoebox cages with a computerized environmental control system (MJ LTD, Seoul, Korea). The care and treatment of experimental animals were performed in accordance with institutional guidelines. The room temperature was maintained at 26.5°C with a relative humidity of approximately 40–70%. The mice were given a standard maintenance diet from Dae Han Bio Link (Daejeon, Korea). For OVX mouse experiments, the surgeries were performed with 8‐week‐old female BL6 mice under anesthesia with avertin (2,2,2‐tribromoethanol; Worthington Biochemical, Freehold, NJ) as described previously (Zahoor et al, 2014). After removing the hair, dorsal incisions were made into the dermal layers above both sides of the ovaries using dissection scissors. The connection between the fallopian tube and the uterine horn was cut, and the ovary was removed. The incision was then sutured with 3 single catgut stitches. Sham mice were used as controls. After 4 weeks, the OVX group was divided into three groups for oral administration of vehicle (saline containing 10% Tween‐60) or 20 mg of KY‐02327 per kg of animal body weight (mpk) of KY‐02327, or for subcutaneous injection of 0.06 mpk of N‐terminal fragment of PTH (amino acids 1–34), which were administered for 5 sequential days per week for 4 weeks. The animals were sacrificed, and the organs were harvested for analysis. For the calcein double‐labeling experiment (Pall et al, 1987), calcein (10 mpk in 2% sodium hydrocarbonate, pH 7.4) was injected twice, on the last day of the 2nd and 3rd week. All the mice were randomly assigned to each groups, and the investigators were blinded to the group allocation during the treatments and experiments.\nThe mouse femurs were scanned using a micro‐CT system (Skyscan 1072; Skyscan, Aartselaar, Belgium). The scanned image data were reconstructed to create 3D images and analyzed using the CT‐Analyzing Program (Skyscan). For femoral trabecular bone analysis, the femurs were scanned with a voxel size of 10 μm, beginning at the end of the growth plate and extending proximally along the diaphysis, and 80 continuous slices (beginning at 0.1 mm from the most proximal aspect of the growth plate in which both condyles were no longer visible) were selected for analysis.\nThe femurs of OVX mice and the calvariae of 4‐day‐old mice were fixed in 4% paraformaldehyde in PBS. The bones were then decalcified in 10 mM EDTA and embedded in paraffin. Five‐micrometer tissue sections were deparaffinized in 100% xylene followed by re‐hydration with sequential 100% to 50% ethanol washes. The sections were stained with hematoxylin and eosin (H&E), and light micrographs were captured using a SMZ645 Nikon microscope (Nikon, Tokyo, Japan). […]"}},
  "data": [
    {"molecule": "O=[N+]([O-])c1ccc2c(c1)Cc1ccccc1-2", "note": "[2-NF, 2-nitrofluorene, reference compound]", "values": [
      {"measurement": "Factor (revertant colonies treated plate / vehicle control plate)", "setting": "TA-98", "result": 9.4},
      {"measurement": "Revertant colonies/plate (Mean)", "setting": "TA-98; dose (g/plate): KY-02327 1000, 2-NF 1", "result": "178 ± 16", "unit": "colonies/plate"}
    ]},
    {"molecule": "[N-]=[N+]=[N-].[Na+]", "note": "[S.A, Sodium azide, reference compound]", "values": [
      {"measurement": "Factor (revertant colonies treated plate / vehicle control plate)", "setting": "TA-100", "result": 5.6},
      {"measurement": "Revertant colonies/plate (Mean)", "setting": "TA-100; dose (g/plate): KY-02327 1000, S.A 1", "result": "689 ± 20", "unit": "colonies/plate"}
    ]},
    {"molecule": "Nc1ccc(S(=O)(=O)Nc2ccnn2-c2ccccc2)cc1", "note": "[Sulfaphenazole, reference compound]", "values": [
      {"measurement": "inhibition at 10 µM", "setting": "[1]", "result": 80.5, "unit": "%"}
    ]},
    {"molecule": "PTH: N‐terminal fragment of PTH (amino acids 1‐34) [reference compound]", "values": [
      {"measurement": "destroyed trabecular bones (3D micro-CT images)", "setting": "[2]; 4 weeks", "result": "rescued"},
      {"measurement": "mineral contents of the bone (BMD), femur, micro‐CT", "setting": "[2]; 4 weeks", "result": "significantly increased"},
      {"measurement": "trabecular bone number", "setting": "[2]; 4 weeks", "result": "increase"},
      {"measurement": "trabecular separation", "setting": "[2]; 4 weeks", "result": "decrease"},
      {"measurement": "volume of bone (BV/TV)", "setting": "[2]; 4 weeks, vs vehicle", "result": "increased"},
      {"measurement": "calcein double‐labeled surface", "setting": "[2]; 5 days per week for 4 weeks", "result": "increased"},
      {"measurement": "new bone formation (calcein-labeled) in femur", "setting": "[2]; 5 days per week for 4 weeks", "result": "recovered"},
      {"measurement": "number of osteoblasts", "setting": "[2]; 5 days per week for 4 weeks", "result": "increased"}
    ]}
  ]
}
